Source: US20060111368A1, “Phosphodiesterase inhibitor” (Kyowa Hakko Kogyo Co., Ltd., priority 2002, published 2006)
Counter-ions that a name gives are not always drawn.

How the values were obtained:
[1] = system: 6-hydroxydopamine (6OHDA)-treated rats; experiment: Test for activity to hyperkinesia in 6-hydroxydopamine (6OHDA)-treated rats; assay type: in vivo, rat; settings: 50 mg/kg test compound intraperitoneally, then L-DOPA 30 mg/kg and benserazide 7.5 mg/kg orally; vehicle group 1,298±193; 180° rotation = 1 count
Procedure: Test for Activity to Hyperkinesia in 6-hydroxydopamine (6OHDA)-Treated Rats
When the unilateral nigrostriatal pathway is lesioned with 6-OHDA, sensitivity of dopamine receptors in the striatum on the lesioned side is increased. When a dopamine activity enhancing substance such as L-DOPA is administered thereto, a rotating behavior takes place on the side opposite to the lesioned side. This animal model has been long positioned as an excellent test model of Parkinson's disease, and has been used for research of therapeutic agent for Parkinson's disease [Neurol. Neurobiol. vol. 33, p. 1 (1987)]. […]
After withdrawal of the administration of apomorphine for 14 days, L-DOPA and bensetazide were orally administered to the rats at doses of 100 mg/kg and 25 mg/kg respectively to induce hyperkinesia. At this time, the number of rotations was measured for 60 minutes immediately after the administration. […]
After 7 days from the dividing into groups, the number of rotations for 60 minutes was measured by similar manner as that of above-mentioned. […] Immediately after the administration, 30 mg/kg of L-DOPA and 7.5 mg/kg of benserazide were orally administered to A and B groups, and the number of rotations for 60 minutes was measured every 5 minutes. […]

[2] = system: MDA-MB-231 (human breast cancer cell); experiment: Cell growth inhibitory activity (MTT-type colorimetric assay); assay type: cell-based; settings: MDA-MB-231, 72 h, 10 μmol/L, 3 days of culture
Procedure: Cell Growth Inhibitory Activity
Cell growth inhibitory activity of compound 12 was examined on MDA-MB-231 (human breast cancer cell: American Type Culture Collection) using an in-vitro cell growth assay [3-(4,5-dimethylthiazol-2-yl)-2,5-diphenyl tetrazolium bromide (MTT)]-type calorimetric assay [Leukemia, vol. 7, p. 1637, (1993)].
MDA-MB-231 (2.5×10^4 cells/mL, 270 μL) was inoculated on a 48-well plate, and cultured overnight. In the culture, Leibovitz's L-15 (Gibco) containing. 10% fetal calf serum (Hi-Clone), 0.05 units/mL of penicillin (Gibco) and 0.05 μg/mL of streptomycin (Gibco) was used as a culture medium. 30 μL of compound 12 dissolved in the same medium containing 0.1% dimethyl sulfoxide (DMSO; Wako Pure Chemical Industries) was added to each well. After 3 days of culture, 30 μL of MTT (Dojin Kagaku Kenkyusho, adjusted to a concentration of 5 mg/mL with PBS) was added to each well. After 4 hours of culture, 900 μL of DMSO was added to dissolve the cells. The cell solution was moved to a 96-well plate in amounts of 200 μL each, and fluorescence intensity OD590-630was measured with an automated microplate reader EL340 (Biotech Instruments). […] (medium containing 0.1% DMSO alone was added) and OD (blank) is fluorescence intensity (OD590-630) of the same medium containing 0.1% DMSO. […]

Cc1c(-c2ccc(-c3ccccc3CN3CCOCC3)cc2)nc2ccc(F)cc2c1CO [Compound 12, 6-Fluoro-4-hydroxymethyl-3-methyl-2-(2′-morpholinomethylbiphenyl-4-yl)quinoline dihydrochloride]
total number of rotations for 60 minutes [1]: 48±20 | inhibition at 10 µM [2]: 39%
